Laboratory results published in patent US7132547B2, “Preventives/remedies for urinary disturbance” (priority 2001, dated 2006).
Where a name gives a salt, the structure may show the parent alone. One block for each molecule: values may come before it.

Assays:
[1] = target: T1, human erythrocyte-derived acetylcholinesterase (Homo sapiens, UniProt P22303); experiment: Measurement of acetylcholinesterase inhibitory activity (acetylthiocholine / Ellman method); type: biochemical; conditions: 50% inhibition concentration, repeated at least three times, read-out: AchE: IC50
T1 construct: Human erythrocyte-drived acetylcholinesterase (Sigma) was dissolved in distilled water; purchased Sigma; host or cells: human erythrocytes (natural source)
T1 sequence (P22303 32-617 isoform P22303-2 limits assumed): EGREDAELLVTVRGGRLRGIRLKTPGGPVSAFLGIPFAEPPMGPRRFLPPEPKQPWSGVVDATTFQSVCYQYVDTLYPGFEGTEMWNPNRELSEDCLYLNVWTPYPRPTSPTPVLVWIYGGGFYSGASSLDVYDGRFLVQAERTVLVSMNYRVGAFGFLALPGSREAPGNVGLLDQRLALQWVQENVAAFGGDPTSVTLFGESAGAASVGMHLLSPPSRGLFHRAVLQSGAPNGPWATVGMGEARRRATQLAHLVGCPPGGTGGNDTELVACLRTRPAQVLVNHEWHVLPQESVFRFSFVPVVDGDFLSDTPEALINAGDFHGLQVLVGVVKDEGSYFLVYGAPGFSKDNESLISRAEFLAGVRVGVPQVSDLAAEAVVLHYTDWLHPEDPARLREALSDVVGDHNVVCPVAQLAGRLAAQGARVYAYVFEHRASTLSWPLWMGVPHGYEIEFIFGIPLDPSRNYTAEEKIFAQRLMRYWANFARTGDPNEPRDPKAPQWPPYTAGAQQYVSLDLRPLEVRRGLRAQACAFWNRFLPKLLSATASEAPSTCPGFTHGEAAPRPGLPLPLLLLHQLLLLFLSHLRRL
Method: a) Measurement of Acetylcholinesterase Inhibitory Activity
Acetylcholinesterase inhibitory activity of Example compounds was measured using human erythrocyte-derived acetylcholinesterase by an acetylthiocholine method (Ellman method).
Human erythrocyte-drived acetylcholinesterase (Sigma) was dissolved in distilled water to the concentration of 0.2 IU/mL to obtain an enzyme specimen. 20 μL of a drug solution, 30 μL of 80 mM Tris-HCL (pH 7.4), 50 μL of an enzyme specimen and 50 μL of 5 mM 5,5-dithio-bis (2-nitrobenzoic acid)(Sigma) were dispensed on a 96-well microplate, and this was shaken for 10 seconds. 50 μL of 4 mM acetylthiocholine iodide (Sigma) was added, this was shaken again and, immediately after, increase in absorbance at 414 nm was measured at 30 second intervals for 10 minutes. Enzyme activity was measured by the following equation: R=5.74×10^−7×ΔA (wherein R represents enzyme activity (mol), and ΔA represents increase in absorbance at 414 nm)
Regarding each compound, the experiment was repeated at least three times to obtain 50% inhibition concentration (IC50). According to the similar method to the above-mentioned, acetylcholinesterase inhibitory activity of distigmine which is a known acetylcholinesterase inhibitor was measured.

[2] = target: T2, human adrenaline α1A receptor (Homo sapiens, UniProt P35348); experiment: Measurement of α1A receptor binding inhibitory activity ([3H]-Prazosin binding to CHO-K1 membrane fraction); conditions: concentration reducing [3H]-Prazosin (2.5 nM) binding to the membrane fraction to 50%
T2 construct: expressed in transfected cells; membrane fraction
T2 sequence (P35348 1-466): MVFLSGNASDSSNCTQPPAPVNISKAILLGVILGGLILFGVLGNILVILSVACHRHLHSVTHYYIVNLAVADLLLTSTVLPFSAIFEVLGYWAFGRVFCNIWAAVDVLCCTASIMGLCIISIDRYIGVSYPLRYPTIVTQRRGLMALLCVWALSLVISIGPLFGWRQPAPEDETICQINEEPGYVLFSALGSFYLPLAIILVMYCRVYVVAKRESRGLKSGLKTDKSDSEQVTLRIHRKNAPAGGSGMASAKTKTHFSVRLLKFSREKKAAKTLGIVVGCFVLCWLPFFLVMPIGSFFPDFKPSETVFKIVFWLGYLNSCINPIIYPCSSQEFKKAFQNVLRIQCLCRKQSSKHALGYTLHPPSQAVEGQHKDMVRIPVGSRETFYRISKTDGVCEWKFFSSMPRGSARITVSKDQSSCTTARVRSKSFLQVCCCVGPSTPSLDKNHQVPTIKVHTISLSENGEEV
Method: b) Measurement of α1A Receptor Binding Inhibitory Activity
The following gene manipulation method was carried out according to the method described in a textbook (Miniatis et al., Molecular Cloning, Cold Spring Harbor Laboratory, 1989) or the method described in protocol attached to a reagent.
(i) Preparation of Expression Plasmid for Human Adrenaline α1A Receptor
An adrenaline α1A receptor gene was cloned from a human liver cDNA by a PCR method. A PCR reaction was performed with Gene Amp PCR System 9700 (Applied Biosystems) using 200 ng of a human liver cDNA library (TAKARA SHUZO Co., Ltd.) as a template and using TaKaRa Pyrobest DNA Polymerase (TAKARA SHUZO CO., Ltd) and adding each 50 pmol of a primer set 5′-[…]-3′ [SEQ ID No.: 1] and 5′-[…]-3[SEQ ID No.: 2] prepared making reference to a nucleotide sequence of an adrenaline α1A receptor gene which was reported by Hirasawa A. et al. (Biochem. Biophys. Res. Commun., 195, 902–909(1993)) (reaction condition: 45 cycles of 15 seconds at 94° C., and 3 minutes 30 seconds at 68° C.).
The obtained PCR fragment was digested with restriction enzymes Eco RI (TAKARA SHUZO Co. Ltd.) and Sal I. (TAKARA SHUZO Co. Ltd.), and agarose gel electrophoresis was performed to recover DNA fragments. The DNA fragments were mixed with an animal cell expression plasmid pMSR αneo (Administration No. A99–0013) which had been digested with Eco RI and Sal I, ligated with DNA Ligation Kit Ver. 2 (TAKARA SHUZO Co. Ltd.), and a competent cell of Esherichia coli JM109 was transformed to obtain a plasmid pMSR αneoA dreα1A.
(ii) Introduction of Plasmid for Expression of Human Adrenaline α1A Receptor into CHO-K1 Cell and Preparation of Membrane Fraction
CHO-K1 cells which had been subcultured in a 150 cm^2 culturing flask (Corning Coaster) using Ham F12 medium (Invitrogen) containing 10% fetal bovine serum (TRACE SCIENTIFIC) was peeled with 0.5 g/L trypsin-0.2 g/L EDTA(Invitrogen), cells were washed with D-PBS(−) (Invitrogen), centrifuged (1000 rpm, 5 min.), and suspended in D-PBS(−). […]

[3] = tested on: Hartley male guinea pigs loaded with phenylephrine; experiment: Pressure Flow Study using guinea pigs loaded with phenylephrine; type: in vivo, guinea pig; conditions: i.v., tamsulosin 0.01 mg/kg, Example 20 0.1 mg/kg, urethane-anesthetized, phenylephrine 3 μg/animal/min
Method: Hartley male guinea pigs (Slc) weighing 300 to 350 g was anesthetized with urethane (1.2 g/kg, i.p.), and a median was incised to expose bladder. Two polyethylene tubes were inserted into bladder, and one of them was used for injecting a physiological saline and the other was used for measuring a bladder internal pressure. A cannulae was inserted into a left femoral vein, and phenylephrine was continuously administered intravenously at 3 μg/animal/min until the completion of experiment. A physiological saline was injected into bladder at a rate of 0.3 mL/min, and injection was stopped when urination was confirmed. The urinated urine weight was measured with an electron balance (HX-400, A & D) at real time. Analogue data of bladder internal pressure and urine weight were inputted into an AD transducer (MP-100, BIOPAC Systems), and digital signals were analyzed with exclusive analyzing software (AcqKnowledge 3.5.3, BIOPAC Systems). The sampling rate of data was 10 Hz, and data of urination amount and urine flow rate were subjected to a lowcut filter at 0.5 Hz in order to remove noises. The value of urine weight was differentiated to calculate urine flow rate (Q), and maximum urine flow rate (Qmax) at urination and bladder internal pressure (Pves (Qmax)) at maximum urine flow were calculated. The urination weight 1 g was converted into 1 mL to calculate the urination amount, and divided by bladder volume to obtain voiding efficiency (Voiding Efficiency). Example compound was dissolved in DMSO, and the solution was intravenously administered at 0.5 mL/kg. 10 minutes after administration of test compound, urinary reflection was recorded again, and change in urine flow rate (ΔQmax), and change in bladder internal pressure (ΔPves(Qmax)) and voiding efficiency were assessed. The change in urine flow rate (ΔQmax) and change in bladder internal pressure (ΔPves. (Qmax)) were an amount of change (Δ value) obtained by subtracting each value before administration of test compound from each value after administration, and voiding efficiency was assessed by a relative value (% of pre-value) of after administration of test compound relative to before administration. Tamsulosin which is a known α1 receptor antagonist was measured similarly. A significance diffenence was tested by a Dunnett test by comparing with each value of a vehicle (DMSO)-administered group.

[4] = tested on: Hartley male guinea pigs; experiment: Effect on blood pressure in anesthetized guinea pigs; type: in vivo, guinea pig
Method: Hartley male guinea pigs (Slc) weighing 300 to 350 g was anesthetized with urethane (1.2 g/kg), and retained, a cervical region was incised to expose a left common carotid artery. A polyethylene tube filled with physiological saline containing heparin (10 U.I./ml) was inserted into an artery, and blood pressure was measured with a pressure transducer. A cannulae for administering test compound was inserted into a vein at an end of left hind leg, and a test compound dissolved in distilled water was administered therethrough at 0.5 mL/kg. The blood pressure was recorded at 20 Hz using an analogue data inputting apparatus (MP-100, BIOPAC Systems), and analyzed by analyzing software (AcqKnowledge 3.5.3, BIOPAC Systems). Example compound and tamsulosin were studied for a dose at which effects were recognized in the aforementioned test a (Pressure Flow Study), and an average blood pressure just before administration of test compound and an average blood pressure 15 minutes after administration were measured. Data were statistically treated by Paired t-test.

[5] = 10 minutes after administration minus before

SMILES: CC(Cc1ccccc1)N1CCC(CCC(=O)c2cc3c4c(c2)CCN4C(=O)CC3)CC1.Cl (racemic)
melting point: 211 to 213 °C

SMILES: Cl.O=C(CCC1CCN(CC(O)c2ccccc2)CC1)c1cc2c3c(c1)CCN3C(=O)CC2 (racemic)
melting point: 235 to 237 °C

SMILES: CN(CCCCCCN(C)C(=O)Oc1ccc[n+](C)c1)C(=O)Oc1ccc[n+](C)c1 [Distigmine, distigmine, reference compound]
IC50 [1]: 723 nM

SMILES: O=C(CCC1CCN(CCc2cccc(F)c2)CC1)c1cc2c3c(c1)CCN3C(=O)CC2 [Example 84, 8-(3-[1-[2-(3-Fluorophenyl)ethyl]-4-piperidinyl]propanoyl)-1,2,5,6-tetrahydro-4H-pyrrolo[3,2,1-ij]quinolin-4-one hydrochloride]
IC50 [1]: 169 nM
IC50 [2]: 236 nM

SMILES: CCOc1ccccc1OCCN[C@H](C)Cc1ccc(OC)c(S(N)(=O)=O)c1 [tamsulosin, Tamsulosin, reference compound]
change in bladder internal pressure (ΔPves(Qmax)) [3, 5]: −3.56 ± 1.09 cmH2O
change in maximum urine flow rate (ΔQmax) [3, 5]: 0.036 ± 0.014 mL/s
voiding efficiency (% of pre-value) ([3]; after administration relative to before): 118.5 ± 13.4 %
reduction of blood pressure ([4]; 0.01 mg/kg, i.v.): about 40%
Blood pressure, after administration ([4]; average blood pressure 15 minutes after i.v. administration, tamsulosin 0.01 mg/kg, Example 20 0.1 mg/kg): 32.9 ± 3.0 mmHg
Blood pressure, before administration ([4]; average blood pressure just before i.v. administration, tamsulosin 0.01 mg/kg, Example 20 0.1 mg/kg): 54.5 ± 2.5 mmHg

SMILES: COc1ccccc1N1CCN(CCCNc2cc(=O)n(C)c(=O)n2C)CC1 [urapidil, reference compound]
IC50 [2]: 357 nM

Other lines, results leading:

melting point: 111 to 113 °C
SMILES: Cl.O=C(CCC1CCN(C2CCc3ccccc32)CC1)c1cc2c3c(c1)CCN3C(=O)CC2 (racemic)

melting point: 223 to 225 °C
SMILES: Cl.O=C(CCC1CCN(C2CCc3ccccc3C2)CC1)c1cc2c3c(c1)CCN3C(=O)CC2 (racemic)

melting point: 252 to 254 °C
SMILES: Cl.O=C1CCc2cc(C(=O)[C@H]3CC[C@H](CNCCc4ccccc4)CC3)cc3c2N1CC3 (stereo in doubt)
